Source: PubChem BioAssay (NCI)
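GI50 is the concentration that inhibits growth by half. TGI is the concentration that stops growth completely.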

Experiments:
Assay in all cases: growth of human tumour cells (NCI), 384-well format
[1] = system: SR leukemia
[2] = system: OVCAR-3 ovarian
[3] = system: NCI-H460 NSCLC
[4] = system: DU-145 prostate
[5] = system: NCI-H322M lung
[6] = system: MOLT-4 leukemia
[7] = system: NCI-H522 lung
[8] = system: M14 melanoma
[9] = system: SNB-75 CNS
[10] = system: MDA-MB-468 breast
[11] = system: PC-3 prostate
[12] = system: UACC-62 melanoma
[13] = system: T-47D breast
[14] = system: HCT-15 colon
[15] = system: RXF 393 renal
[16] = system: A498 renal
[17] = system: HL-60(TB) leukemia
[18] = system: MALME-3M melanoma
[19] = system: IGROV1 ovarian
[20] = system: HCC-2998 colon
[21] = system: BT-549 breast
[22] = system: NCI/ADR-RES ovarian
[23] = system: CAKI-1 renal
[24] = system: SNB-19 CNS
[25] = system: SK-MEL-5 melanoma
[26] = system: SF-268 CNS
[27] = system: U251 glioblastoma
[28] = system: SF-295 CNS
[29] = system: SK-MEL-28 melanoma
[30] = system: RPMI-8226 leukemia
[31] = system: HS 578T breast
[32] = system: COLO 205 colon
[33] = system: MDA-MB-435 melanoma
[34] = system: SN12C renal
[35] = system: HT29 colon
[36] = system: HOP-92 NSCLC
[37] = system: UACC-257 melanoma
[38] = system: SF-539 CNS
[39] = system: EKVX NSCLC
[40] = system: OVCAR-4 ovarian
[41] = system: OVCAR-5 ovarian
[42] = system: A549 NSCLC
[43] = system: NCI-H226 lung
[44] = system: ACHN renal
[45] = system: NCI-H23 lung
[46] = system: LOX IMVI melanoma
[47] = system: HCT-116 colon
[48] = system: SK-OV-3 ovarian
[49] = system: TK-10 renal
[50] = system: HOP-62 NSCLC
[51] = system: MDA-MB-231 breast
[52] = system: MCF7 breast
[53] = system: KM12 colon
[54] = system: OVCAR-8 ovarian

Compound `O=C1Nc2ccc(CN3CCOC3=O)cc2/C1=C/c1cc(CN2CCOCC2)c[nH]1` has a GI50 [1] of 14 µM, a TGI [1] of 30.6 µM and a GI50 [2] of 40.3 µM. For the same compound, the TGI [2] was over 100 µM, the GI50 [3] was 19.6 µM and the TGI [3] was 40 µM. For the same compound, the GI50 [4] was 45.9 µM, the TGI [4] was over 100 µM and the GI50 [5] was 43.7 µM. It also gave a TGI [5] of over 100 µM, a GI50 [6] of 20.5 µM and a TGI [6] of 36.5 µM. The GI50 [7] was 21.6 µM, the TGI [7] was 55.2 µM and the GI50 [8] was 49 µM. The TGI [8] was over 100 µM, the GI50 [9] was 86 µM and the TGI [9] was over 100 µM. The GI50 [10] was 23 µM, the TGI [10] was 85.1 µM and the GI50 [11] was 35.3 µM. It also gave a TGI [11] of 98.1 µM, a GI50 [12] of 45.1 µM and a TGI [12] of over 100 µM. For the same compound, the GI50 [13] was 17.5 µM, the TGI [13] was 44 µM and the GI50 [14] was 27.9 µM. It also gave a TGI [14] of 93.1 µM, a GI50 [15] of 96.3 µM and a TGI [15] of over 100 µM. For the same compound, the GI50 [16] was over 100 µM, the TGI [16] was over 100 µM and the GI50 [17] was 16.3 µM. For the same compound, the TGI [17] was 30 µM, the GI50 [18] was over 100 µM and the TGI [18] was over 100 µM. It also gave a GI50 [19] of 43.4 µM, a TGI [19] of over 100 µM and a GI50 [20] of 30.1 µM. For the same compound, the TGI [20] was 68.1 µM, the GI50 [21] was 24.5 µM and the TGI [21] was 58.9 µM. The GI50 [22] was 30 µM, the TGI [22] was 83.9 µM and the GI50 [23] was 58.5 µM. The TGI [23] was over 100 µM, the GI50 [24] was 63.3 µM and the TGI [24] was over 100 µM. It also gave a GI50 [25] of 15.7 µM, a TGI [25] of 30.8 µM and a GI50 [26] of 49.9 µM. It also gave a TGI [26] of over 100 µM, a GI50 [27] of 42.2 µM and a TGI [27] of over 100 µM. The GI50 [28] was 33.8 µM, the TGI [28] was over 100 µM and the GI50 [29] was 71.8 µM. It also gave a TGI [29] of over 100 µM, a GI50 [30] of 18.2 µM and a TGI [30] of 39.8 µM. The GI50 [31] was 64.6 µM, the TGI [31] was over 100 µM and the GI50 [32] was 49.2 µM. The TGI [32] was over 100 µM, the GI50 [33] was 25.5 µM and the TGI [33] was 76.7 µM. For the same compound, the GI50 [34] was 27.1 µM, the TGI [34] was over 100 µM and the GI50 [35] was 30.4 µM. The TGI [35] was over 100 µM, the GI50 [36] was over 100 µM and the TGI [36] was over 100 µM. The GI50 [37] was 35.6 µM, the TGI [37] was over 100 µM and the GI50 [38] was 53.8 µM. It also gave a TGI [38] of over 100 µM, a GI50 [39] of 38.2 µM and a TGI [39] of over 100 µM. It also gave a GI50 [40] of 33.5 µM, a TGI [40] of 93.3 µM and a GI50 [41] of over 100 µM. The TGI [41] was over 100 µM, the GI50 [42] was 49.7 µM and the TGI [42] was over 100 µM. For the same compound, the GI50 [43] was 33.3 µM, the TGI [43] was 83 µM and the GI50 [44] was 77.9 µM. The TGI [44] was over 100 µM, the GI50 [45] was 25.2 µM and the TGI [45] was over 100 µM. The GI50 [46] was 28.7 µM, the TGI [46] was 68.3 µM and the GI50 [47] was 41.2 µM. For the same compound, the TGI [47] was over 100 µM, the GI50 [48] was 43.5 µM and the TGI [48] was over 100 µM. For the same compound, the GI50 [49] was 43.3 µM, the TGI [49] was over 100 µM and the GI50 [50] was 31.6 µM. The TGI [50] was 75.9 µM, the GI50 [51] was 58.8 µM and the TGI [51] was over 100 µM. The GI50 [52] was 33.1 µM, the TGI [52] was over 100 µM and the GI50 [53] was 5.29 µM. The TGI [53] was over 100 µM, the GI50 [54] was 37.8 µM and the TGI [54] was over 100 µM.
